In article PMC7763995 (Molecules, 2020):

What was measured:
EeAChE PAS = target: T1, EeAChE PAS (Electrophorus electricus, UniProt O42275); format: binding; conditions: compound concentration 20 µM
T1 construct: Electric eel AChE (EeAChE, type VI-S, lyophilized powder); purchased Sigma-Aldrich type VI-S; host or cells: electric eel
Method: Electric eel AChE (EeAChE, type VI-S, lyophilized powder, Sigma-Aldrich, Saint Louis, MO, USA) was used owing to its high degree of purification, high activity, and lower cost compared to human AChE.
The blank contained propidium iodide of the same concentration in 1 mM Tris-HCl buffer pH 8.0. The measurements were carried out in triplicate on a FLUOStar Optima microplate reader, and the results were calculated by formula (1):% Displacement = 100 − (IFAChE+ Propidium + inhibitor / IFAChE + Propidium) × 100(1) where IFAChE + Propidium is the fluorescence intensity of the propidium associated with AChE in the absence of the test compound (taken as 100%), and IFAChE + Propidium + inhibitor is the fluorescence intensity of the propidium associated with AChE in the presence of the test compound.

Human erythrocyte AChE = target: T2, Human erythrocyte AChE (Homo sapiens, UniProt P22303); test: Kinetic study of AChE inhibition, steady-state inhibition constants; format: biochemical
T2 construct: AChE from human erythrocytes was used; purchased Sigma-Aldrich; host or cells: human erythrocytes
T2 sequence (P22303 32-617 isoform P22303-2 limits assumed): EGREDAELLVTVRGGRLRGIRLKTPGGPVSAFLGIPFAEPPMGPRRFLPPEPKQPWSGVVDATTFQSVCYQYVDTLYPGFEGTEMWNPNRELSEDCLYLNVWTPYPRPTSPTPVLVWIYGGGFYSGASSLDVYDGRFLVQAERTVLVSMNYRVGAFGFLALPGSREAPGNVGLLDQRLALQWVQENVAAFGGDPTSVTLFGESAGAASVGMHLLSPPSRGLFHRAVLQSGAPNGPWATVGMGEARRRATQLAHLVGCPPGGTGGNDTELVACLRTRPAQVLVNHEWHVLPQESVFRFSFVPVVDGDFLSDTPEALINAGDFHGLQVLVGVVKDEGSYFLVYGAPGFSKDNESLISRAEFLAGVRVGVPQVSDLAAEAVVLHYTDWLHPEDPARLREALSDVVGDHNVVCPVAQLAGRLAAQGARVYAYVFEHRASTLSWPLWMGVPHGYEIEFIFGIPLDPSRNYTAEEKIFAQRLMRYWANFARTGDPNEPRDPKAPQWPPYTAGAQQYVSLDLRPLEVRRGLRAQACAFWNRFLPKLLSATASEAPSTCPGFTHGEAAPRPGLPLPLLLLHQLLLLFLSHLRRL
Method: (§1) Mechanisms of human erythrocyte AChE and equine serum BChE inhibition were assessed via a thorough analysis of enzyme kinetics. Residual activity was measured following 5 min incubation at 25°C (for temperature equilibration) with three increasing concentrations of inhibitor and six decreasing substrate concentrations. Substrate was added immediately after the 5 min incubation with inhibitor and the rates of absorption were monitored at 412 nm using a FLUOStar OPTIMA microplate reader.

Equine serum BChE = target: T3, Equine serum BChE (Equus caballus, UniProt P81908); test: Kinetic study of BChE inhibition, steady-state inhibition constants; format: biochemical
T3 construct: equine serum BChE; purchased Sigma-Aldrich; host or cells: equine serum
T3 sequence (P81908 whole entry): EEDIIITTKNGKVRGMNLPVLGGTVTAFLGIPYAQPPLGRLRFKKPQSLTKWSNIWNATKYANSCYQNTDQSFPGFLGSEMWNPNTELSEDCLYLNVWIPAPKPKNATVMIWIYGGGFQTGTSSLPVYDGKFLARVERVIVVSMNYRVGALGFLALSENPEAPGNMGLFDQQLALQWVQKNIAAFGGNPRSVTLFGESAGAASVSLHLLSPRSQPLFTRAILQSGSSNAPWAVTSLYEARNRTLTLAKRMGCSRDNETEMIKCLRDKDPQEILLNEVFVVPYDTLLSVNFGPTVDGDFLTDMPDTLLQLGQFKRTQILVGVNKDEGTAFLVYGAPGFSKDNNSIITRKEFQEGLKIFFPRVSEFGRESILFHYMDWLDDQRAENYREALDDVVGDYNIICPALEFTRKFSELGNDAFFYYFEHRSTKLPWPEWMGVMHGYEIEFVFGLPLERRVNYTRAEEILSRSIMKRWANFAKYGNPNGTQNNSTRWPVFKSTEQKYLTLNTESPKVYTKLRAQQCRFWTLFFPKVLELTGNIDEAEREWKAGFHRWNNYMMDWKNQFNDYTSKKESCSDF
Method: as §1

[1] = ABTS radical cation scavenging activity assay; conditions: 1 h incubation
Method: Radical scavenging activity of the compounds was assessed using the ABTS radical decolorization assay with some modifications. ABTS was purchased from Tokyo Chemical Industry Co., Ltd. (Tokyo, Japan), potassium persulfate (dipotassium peroxodisulfate), Trolox (6-hydroxy-2,5,7,8-tetramethychroman-2-carboxylic acid), and HPLC-grade ethanol were obtained from Sigma-Aldrich. Aqueous solutions were prepared using deionized water.
The solution of cation radical ABTS^•+ was produced by incubation of ABTS with potassium persulfate in deionized water for 12–16 h at room temperature in the dark. Radical scavenging capacity of the compounds was analyzed by mixing 10 μL of compound with 240 μL of ABTS^•+ working solution in ethanol (100 μM final concentration). The reaction was monitored for an hour with an interval of 5–10 min. Data are given for 1 h of incubation of compounds with ABTS^•+. The reduction in absorbance was measured spectrophotometrically at 734 nm using a xMark microplate UV/VIS microplate spectrophotometer (Bio-Rad, Hercules, CA, USA).
Ethanol blanks were run in each assay. Values were obtained from three replicates of each sample and three independent experiments. Standard antioxidants Trolox and BHT were used as reference compounds.
Antioxidant capacity as Trolox equivalent (TEAC) values was determined as the ratio between the slopes obtained from the linear correlation of the ABTS radical absorbance with the concentrations of tested compounds and Trolox. […] The compounds were tested in the concentration range of 0.1–100 µM.

[2] = FRAP (ferric reducing antioxidant power) assay; conditions: 20 µM, 1 h incubation; ratio of concentrations of Trolox and test compound with same effect
Method: The FRAP (ferric reducing antioxidant power) assay proposed by Benzie and Strain [80, 81] was modified to be performed in 96-well microplates. The FRAP reagent contained 2.5 mL of 10 mM TPTZ (2,4,6-tris(2-pyridyl)-s-triazine (Sigma-Aldrich) solution in 40 mM HCl, 2.5 mL of 20 mM FeCl3 (Sigma-Aldrich) in distilled water and 25 mL of 0.3 M acetate buffer (pH 3.6). In 96-well microplates, 10 µL aliquots of the substance under investigation (compounds 7, 8 or reference substance) dissolved in DMSO (0.5 mM) were placed in quadruplicate. The FRAP reagent (240 µL) freshly prepared and warmed to 37°C was added to three of these samples, while the same volume of acetate buffer was added to the fourth one (blank). Consequently, the concentration of the substance in a plate was 20 µM. The absorbance at 600 nm was monitored spectrophotometrically with a FLUOStar OPTIMA microplate reader at 37°C for an hour with an interval of 5–10 min. Data in Table 2 are given for 1 h of incubation of compounds with FRAP reagent. The absorbances of the blanks and those of the mixture of 240 µL FRAP reagent plus 10 µL DMSO were subtracted from the absorbances of the samples at each time interval to calculate the absorbance change. Standard antioxidants Trolox and BHT dissolved in DMSO and analyzed as described above were used as reference compounds. A calibration curve with linear formula y = 0.03x (R^2 = 0.998, p < 0.0001) was obtained for Trolox solution in DMSO in the range 2.5–100 µM and the results were expressed as FRAP units (the values calculated as the ratio of the concentrations of Trolox and the test compound resulting in the same effect.)

mouse brain homogenate = test: TBARS assay, spontaneous lipid peroxidation in mouse brain homogenate; conditions: read-out: Inhibition of Spontaneous Lipid Peroxidation in Mice Brain Homogenate, TBARS Assay, IC50
Method: The work was carried out in accordance with the EU Directive 2010/63/EU. Hybrid BDF1 mice (about 6 months old) were sacrificed by decapitation. Each brain was rapidly excised, frozen in liquid nitrogen, and stored at −80°C until use. The brains were thawed and homogenized using a Wisd WiseTis HG-15D homogenizer for 2 min in a buffer (0.01 M PBS, pH 7.4 or 0.1 M Tris-HCl, pH 7.4). Protein concentrations were determined by the Lowry method.
The procedure was performed in accordance with the method of Ohkawa et al. with minor modifications. Briefly, mouse brain homogenate (protein concentration 1 mg/mL) in PBS (0.1 M, pH 7.4) was incubated for 30 min at 37°C with tested conjugates, and the reaction was terminated by addition of 0.4 mL of 17% (w/v) trichloroacetic acid (Sigma-Aldrich). Following centrifugation for 20 min at 1300× g, 0.5 mL of 0.8% (w/v) of TBA (Sigma-Aldrich) was added to 1 mL of supernatant, heated for 30 min at 95°C and then cooled to RT. The optical density of the TBARS, which corresponds to the produced MDA, was measured at 532 nm against a blank using an Agilent Cary 60 UV-Vis spectrophotometer (Agilent, Santa Clara, CA, USA). The MDA concentration was calculated using an extinction coefficient of 1.56 × 10^5 M^−1cm^−1. Trolox and BHT were used as reference antioxidants. Compounds were dissolved in DMSO (Sigma-Aldrich) and tested in a concentration range 0.01–100 μM. All compounds were examined at least in triplicate.

T1 sequence (O42275 24-633): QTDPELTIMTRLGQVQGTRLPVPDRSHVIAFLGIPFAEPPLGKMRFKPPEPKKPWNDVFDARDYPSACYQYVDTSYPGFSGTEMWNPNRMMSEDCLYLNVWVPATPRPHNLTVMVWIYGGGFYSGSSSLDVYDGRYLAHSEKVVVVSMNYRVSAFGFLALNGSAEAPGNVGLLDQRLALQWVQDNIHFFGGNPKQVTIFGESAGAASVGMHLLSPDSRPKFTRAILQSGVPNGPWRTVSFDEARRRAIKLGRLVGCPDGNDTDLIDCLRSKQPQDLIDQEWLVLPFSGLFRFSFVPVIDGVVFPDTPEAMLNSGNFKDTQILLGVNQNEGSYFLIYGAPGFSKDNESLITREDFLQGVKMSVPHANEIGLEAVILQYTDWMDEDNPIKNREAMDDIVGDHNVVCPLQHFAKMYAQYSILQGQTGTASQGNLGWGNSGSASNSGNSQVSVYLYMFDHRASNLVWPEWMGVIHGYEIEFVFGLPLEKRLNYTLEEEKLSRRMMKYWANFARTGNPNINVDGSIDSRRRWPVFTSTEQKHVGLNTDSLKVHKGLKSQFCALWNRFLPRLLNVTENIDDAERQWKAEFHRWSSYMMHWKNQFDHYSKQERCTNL

CC(C)(C)c1cc(C=NCCNc2c3c(nc4ccccc24)CCCCC3)cc(C(C)(C)C)c1O [Compound 7c, 2,6-Di-tert-butyl-4-{[2-(7,8,9,10-tetrahydro-6H-cyclohepta[b]quinolin-11-ylamino)-ethylimino]-methyl}-phenol]
Displacement of Propidium from EeAChE PAS (%) (EeAChE PAS): 16.3 ± 1.3%
αKi (noncompetitive component), AChE (Human erythrocyte AChE; Lineweaver-Burk plots): 4.30 ± 0.02 µM
Ki (Human erythrocyte AChE; Lineweaver-Burk plots, read-out: Ki (competitive component), AChE): 1.58 ± 0.1 µM
Mechanism of AChE inhibition (Human erythrocyte AChE; changes in both Km and Vmax): mixed type of reversible inhibition
αKi (noncompetitive component), BChE (Equine serum BChE; Lineweaver-Burk plots): 0.437 ± 0.010 µM
Ki (Equine serum BChE; Lineweaver-Burk plots, read-out: Ki (competitive component), BChE): 0.164 ± 0.005 µM
Mechanism of BChE inhibition (Equine serum BChE; changes in both Km and Vmax): mixed type of reversible inhibition
IC50 [1]: 17.8 ± 1.6 µM
ABTS^•+-Scavenging Activity, TEAC ([1]; ratio of slopes test compound/Trolox): 1.11 ± 0.04
Ferric Reducing Antioxidant Power, FRAP Units [2]: 0.52 ± 0.04
IC50 (mouse brain homogenate): 10.4 ± 0.7 µM
